Reference: PubChem BioAssay AID2060352 (Molecular Pharmacology Branch, DTP, NCI, 2025)

System: 616215-338-R-J1-PDC spheroid with HUVEC/MSC, viability
Experiment: Anticancer human tumor 616215-338-R-J1-PDC patient-derived colon adenocarcinoma cell line growth inhibition [TAK]
Details: for IC50: curve of first compound; for viability, T/C: stronger effect = lower value
Method in brief: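 Drug combinations, each paired with TAK-243 or ipatasertib, were tested on multi-cell spheroids of 60% malignant cells, 25% HUVEC and 15% hMSC. Top concentrations were at or near the clinical Cmax (10 microM if undetermined), decreasing by half-log; viability is given as % test/control.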

[1] = second compound 0.3 µM, first compound 0.0316 µM
[2] = second compound 0.3 µM, first compound 0.1 µM
[3] = second compound 0.3 µM, first compound 0.316 µM
[4] = second compound 0.3 µM, first compound 1 µM
[5] = second compound 0.949 µM, first compound 0.0316 µM
[6] = second compound 0.949 µM, first compound 0.1 µM
[7] = second compound 0.949 µM, first compound 0.316 µM
[8] = second compound 0.949 µM, first compound 1 µM
[9] = second compound 3 µM, first compound 0.0316 µM
[10] = second compound 3 µM, first compound 0.1 µM
[11] = second compound 3 µM, first compound 0.316 µM
[12] = second compound 3 µM, first compound 1 µM
[13] = second compound 9.49 µM, first compound 0.0316 µM
[14] = second compound 9.49 µM, first compound 0.1 µM
[15] = second compound 9.49 µM, first compound 0.316 µM
[16] = second compound 9.49 µM, first compound 1 µM
[17] = second compound 30 µM, first compound 0.0316 µM
[18] = second compound 30 µM, first compound 0.1 µM
[19] = second compound 30 µM, first compound 0.316 µM
[20] = second compound 30 µM, first compound 1 µM
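Also: spheroids exposed to drugs for 7 days before readout.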

Structure (SMILES) | IC50 (second compound 0.3 µM) [nM] | IC50 (second compound 0.949 µM) [nM] | IC50 (second compound 3 µM) [nM] | IC50 (second compound 9.49 µM) [nM] | IC50 (second compound 30 µM) [nM] | viability, T/C [1] [%] | viability, T/C [2] [%] | viability, T/C [3] [%] | viability, T/C [4] [%] | viability, T/C [5] [%] | viability, T/C [6] [%] | viability, T/C [7] [%] | viability, T/C [8] [%] | viability, T/C [9] [%] | viability, T/C [10] [%] | viability, T/C [11] [%] | viability, T/C [12] [%] | viability, T/C [13] [%] | viability, T/C [14] [%] | viability, T/C [15] [%] | further results
COc1c(OCCCN2CCOCC2)ccc2c3n(c(=NC(=O)c4cnc(N)nc4)nc12)CCN3 + CC(C)NCC(C(=O)N1CCN(c2ncnc3c2C(C)CC3O)CC1)c1ccc(Cl)cc1 | 99.4 | 73.1 | 9.23 | < 3.16 | < 3.16 | 110 | 49.7 | 27.2 | 17.6 | 83.3 | 37.4 | 24.4 | 15.8 | 33.9 | 26.4 | 19.1 | 15.6 | 20.9 | 14.4 | 12.7 | viability, T/C (second compound 0.3 µM, first compound 0.00316 µM): 101%; viability, T/C (second compound 0.3 µM, first compound 0.01 µM): 113%; viability, T/C (second compound 0.949 µM, first compound 0.00316 µM): 113%; viability, T/C (second compound 0.949 µM, first compound 0.01 µM): 117%; viability, T/C (second compound 3 µM, first compound 0.00316 µM): 64.3%; viability, T/C (second compound 3 µM, first compound 0.01 µM): 49.7%; viability, T/C (second compound 9.49 µM, first compound 0.00316 µM): 23.5%; viability, T/C (second compound 9.49 µM, first compound 0.01 µM): 31.1%; viability, T/C [16]: 14.9%; viability, T/C (second compound 30 µM, first compound 0.00316 µM): 11.7%; viability, T/C (second compound 30 µM, first compound 0.01 µM): 12.8%; viability, T/C [17]: 9.99%; viability, T/C [18]: 9.6%; viability, T/C [19]: 8.41%; viability, T/C [20]: 7.42%
Cc1nc(NC(=O)N2CCCC2C(N)=O)sc1-c1ccnc(C(C)(C)C(F)(F)F)c1 (stereo not given) + CC(C)NCC(C(=O)N1CCN(c2ncnc3c2C(C)CC3O)CC1)c1ccc(Cl)cc1 | > 10000 | > 10000 | 2760 | < 31.6 | < 31.6 | 101 | 113 | 127 | 112 | 120 | 119 | 128 | 119 | 94.9 | 91 | 80 | 52.2 | 28 | 27.4 | 25.1 | viability, T/C (second compound 0.3 µM, first compound 3.16 µM): 119%; viability, T/C (second compound 0.3 µM, first compound 10 µM): 83.3%; viability, T/C (second compound 0.949 µM, first compound 3.16 µM): 110%; viability, T/C (second compound 0.949 µM, first compound 10 µM): 51.3%; viability, T/C (second compound 3 µM, first compound 3.16 µM): 59.3%; viability, T/C (second compound 3 µM, first compound 10 µM): 37.8%; viability, T/C [16]: 24.9%; viability, T/C (second compound 9.49 µM, first compound 3.16 µM): 21.5%; viability, T/C (second compound 9.49 µM, first compound 10 µM): 16.1%; viability, T/C [17]: 14.2%; viability, T/C [18]: 14.4%; viability, T/C [19]: 11.4%; viability, T/C [20]: 11.3%; viability, T/C (second compound 30 µM, first compound 3.16 µM): 10%; viability, T/C (second compound 30 µM, first compound 10 µM): 6.48%
